From ChEMBL document CHEMBL1128746, “Aminoalkylindoles: structure-activity relationships of novel cannabinoid mimetics” (J Med Chem, 1995)

Experiments:
[1] = target: Cannabinoid receptor 1 (Rattus norvegicus) (UniProt P20272); assay: (§1) […] [3H]WIN-55212 binding to Cannabinoid receptor 1 in rat cerebellum membranes.; assay type: cell membranes; conditions: Membrane, concentration not given here
[2] = target: Cannabinoid receptor 1 (Rattus norvegicus, UniProt P20272); assay: as §1; assay type: cell membranes, Membrane
Sequence of Cannabinoid receptor 1 (P20272 whole entry): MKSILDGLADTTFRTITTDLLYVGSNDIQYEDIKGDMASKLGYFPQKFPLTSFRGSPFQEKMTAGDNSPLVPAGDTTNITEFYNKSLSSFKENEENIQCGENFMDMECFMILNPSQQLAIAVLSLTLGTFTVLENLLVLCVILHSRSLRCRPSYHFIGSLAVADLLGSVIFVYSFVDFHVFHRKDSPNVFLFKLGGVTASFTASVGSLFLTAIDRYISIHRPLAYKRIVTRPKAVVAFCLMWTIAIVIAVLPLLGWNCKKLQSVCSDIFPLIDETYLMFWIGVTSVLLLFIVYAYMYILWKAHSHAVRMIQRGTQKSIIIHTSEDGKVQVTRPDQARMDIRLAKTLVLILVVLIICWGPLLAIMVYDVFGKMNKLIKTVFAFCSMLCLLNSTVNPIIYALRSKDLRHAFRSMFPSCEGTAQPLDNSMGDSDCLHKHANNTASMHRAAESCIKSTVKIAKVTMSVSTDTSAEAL

[3] = species on record: Mus musculus; assay: Concentration required to inhibit electrically induced contractions in isolated mouse vas deferens preparation in vitro; assay type: functional

Sequence of Cannabinoid receptor 1 (Rattus norvegicus) (P20272 whole entry): as above

Row | SMILES | inhibition [1] [%] | IC50 [2] [nM] | IC50 ([3]; Mus musculus) [nM] | IC50 [3] [nM]
1 | COc1ccc(C(=O)c2c(F)n(CCN3CCOCC3)c3ccccc23)cc1 | 7 |  |  | 
2 | Cc1ccc(C(=O)c2c(C)n(CCN3CCOCC3)c3ccccc23)cc1C |  | 140 |  | 
3 | COc1ccc(C(=O)c2c(C)n(CCN3CCOCC3)c3c(F)cccc23)cc1 |  | 571 | 73 | 
4 | Cc1c(C(=O)c2ccnc3ccccc23)c2ccccc2n1CCN1CCOCC1 |  | 283 | 115 | 
5 | O=C(c1ccc2ccoc2c1)c1cn(CCN2CCOCC2)c2ccccc12 |  | 304 | 40 | 
6 | COc1ccc(C(=O)c2cn(CCN3CCOCC3)c3ccccc23)c2ccccc12 |  | 1.4 |  | 
7 | Cc1c(C(=O)c2cccc(F)c2)c2ccccc2n1CCN1CCOCC1 | 38 |  |  | 
8 | Cc1c(C(=O)c2cccc3ccccc23)c2ccc(Br)cc2n1CCN1CCOCC1 |  | 10 |  | 
9 | Cc1c(C(=O)c2cccc3ccccc23)c2ccccc2n1C(C)CN1CCOCC1 (racemic; form 1) [listing 1 of 2 here] |  |  |  | 56
10 | O=C(c1cn(CCN2CCOCC2)c2ccccc12)C1CCCc2ccccc21 (stereo unspecified) |  | 38 | 11 | 
11 | O=C(c1ccc2ccccc2c1)c1cn(CCN2CCOCC2)c2ccccc12 |  | 59 | 31 | 
12 | COc1ccc(C(=O)c2c(C)n(CCN3CCOCC3)c3ccccc23)cc1 [PRAVADOLINE] |  | 3150 | 319 | 
13 | COc1ccc(C(=O)c2c(C)n(CC(C)N3CCOCC3)c3ccccc23)cc1 (stereo unspecified) |  |  | > 10000 | 
14 | COc1ccc(C(=O)c2c(O)n(CCN3CCOCC3)c3ccccc23)cc1 | 1 |  |  | 
15 | COc1ccc(C(=O)c2c(C)n(CCN(C)C)c3ccccc23)cc1 | 11 |  |  | 
16 | COc1ccc(C(=O)c2c(C)n(CCN)c3ccccc23)cc1 |  |  | > 10000 | 
17 | COc1ccc(C(=O)c2c(C)n(CCN3CCOCC3)c3ccccc23)c2ccccc12 |  | 55 | 23 | 
18 | Cc1c(C(=O)c2cccc3ccccc23)c2ccccc2n1C(C)CN1CCOCC1 (racemic; form 1) [listing 2 of 2 here] | 79 |  |  | 
19 | Cc1c(C(=O)c2cc3ccccc3o2)c2ccccc2n1CCN1CCOCC1 |  | 416 | 324 | 
20 | CCN(CC)CCn1c(C)c(C(=O)c2ccc(OC)cc2)c2ccccc21 |  |  | > 10000 | 
21 | COc1ccc(C(=O)c2c(C)n(CCN3CCOCC3C)c3ccccc23)cc1 (stereo unspecified) |  |  | > 10000 | 
22 | COc1ccc(C(=O)c2c(C)n(CCN3CCOCC3)c3cc(Br)ccc23)cc1 |  | 515 | > 10000 | 
23 | O=C(c1cccc2ccccc12)c1cn(CCN2CCOCC2)c2ccccc12 |  | 7.8 | 6.3 | 

Row | SMILES | inhibition [1] [%] | IC50 [2] [nM] | IC50 ([3]; Mus musculus) [nM] | IC50 [3] [nM]
24 | Cc1ccc(C(=O)c2c(C)n(CCN3CCOCC3)c3ccccc23)cc1 |  | 1770 | 442 | 
25 | CC(CN1CCOCC1)n1cc(C(=O)c2cccc3ccccc23)c2ccccc21 (racemic; form 2) [listing 1 of 2 here] | 94 |  |  | 
26 | CC(CN1CCOCC1)n1cc(C(=O)c2cccc3ccccc23)c2ccccc21 (racemic; form 2) [listing 2 of 2 here] |  |  |  | 19
27 | COc1ccc(C(=O)c2c(C)n(CC[N+]3(C)CCOCC3)c3ccccc23)cc1 |  |  | 4310 | 
28 | COc1ccc(C(=O)c2c(C#N)n(CCN3CCOCC3)c3ccccc23)cc1 | 3 |  |  | 
29 | Cc1ccc(C(=O)c2c(C)n(CCN3CCOCC3)c3ccccc23)c2ccccc12 |  | 5.9 | 9.6 | 
30 | Cc1ccc2c(C(=O)c3cccc4ccccc34)c(C)n(CCN3CCOCC3)c2c1 |  | 11 | 15 | 
31 | CCCc1ccc(C(=O)c2c(C)n(CCN3CCOCC3)c3ccccc23)cc1 |  | 1130 |  | 
32 | Cc1c(C(=O)c2cccc3ccccc23)c2ccccc2n1CCN1CCN(C)CC1 |  |  | > 10000 | 
33 | Cc1c(C(=O)c2cccc3ccccc23)c2ccccc2n1C(C)CN1CCOCC1 (racemic; form 2) |  | 13 |  | 11
34 | Cc1cccc(C(=O)c2c(C)n(CCN3CCOCC3)c3ccccc23)c1 |  | 606 |  | 
35 | O=C(c1cccc2ccccc12)c1cn(CCN2CCOCC2)c2ccc(F)cc12 |  | 35 | 7.3 | 
36 | COc1ccc(C(=O)c2c(C)n(CCN3CCSCC3)c3ccccc23)cc1 |  | 622 |  | 
37 | COc1ccc(C(=O)c2c(C)n(CCCCN3CCOCC3)c3ccccc23)cc1 |  |  | > 10000 | 
38 | Cc1cccc(C(=O)c2c(C)n(CCN3CCOCC3)c3ccccc23)c1C |  | 373 |  | 
39 | Cc1c(C(=O)c2cccc3cccnc23)c2ccccc2n1CCN1CCOCC1 |  | 274 | 129 | 
40 | CCCCCc1cc(O)c2c(c1)OC(C)(C)[C@@H]1CCC(C)=C[C@@H]21 [DRONABINOL] |  |  | 4 | 
41 | Cc1ccc(C(=O)c2cn(CCN3CCOCC3)c3ccccc23)c2ccccc12 |  | 2.8 | 3.6 | 
42 | COc1ccc(C(=O)c2c(C)n(CC(=O)O)c3ccccc23)cc1 |  |  | > 10000 | 
43 | Cc1c(C(=O)c2coc3ccccc23)c2ccccc2n1CCN1CCOCC1 |  | 110 | 52 | 
44 | Cc1c(C(=O)c2cccc3ccoc23)c2ccccc2n1CCN1CCOCC1 |  | 71 | 17 | 
45 | COc1ccc(C(=O)c2c(C)n(CCN3CCS(=O)(=O)CC3)c3ccccc23)cc1 | -4 |  |  | 
46 | Cc1c(C(=O)c2ccc(Br)c3ccccc23)c2ccccc2n1CCN1CCOCC1 |  | 6.9 | 34 | 

Row | SMILES | inhibition [1] [%] | IC50 [2] [nM] | IC50 ([3]; Mus musculus) [nM] | IC50 [3] [nM]
47 | COc1ccc(C(=O)c2c(C)n(CCN3CCNCC3)c3ccccc23)cc1 |  |  | > 10000 | 
48 | Cc1c(C(=O)c2ccccc2O)c2ccccc2n1CCN1CCOCC1 | -2 |  |  | 
49 | COc1ccc(C(=O)c2c(C)[nH]c3ccccc23)cc1 |  |  | 27 | 
50 | Cc1c(C(=O)c2cccc(Cl)c2)c2ccccc2n1CCN1CCOCC1 |  | 1320 |  | 
51 | O=C(c1cn(CCN2CCOCC2)c2ccccc12)c1cccc2ccoc12 |  | 18 | 4.6 | 
52 | Cc1c(C(=O)c2ccc3ccccc3n2)c2ccccc2n1CCN1CCOCC1 |  | 331 | 99 | 
53 | O=C(c1ccc2ncccc2c1)c1cn(CCN2CCOCC2)c2ccccc12 |  | 491 | 142 | 
54 | Cc1c(C(=O)c2ccc3occc3c2)c2ccccc2n1CCN1CCOCC1 |  | 357 | 126 | 
55 | Cc1c(C(=O)c2ccc3ccccc3c2)c2ccccc2n1CCN1CCOCC1 |  | 128 | 50 | 
56 | COc1ccccc1C(=O)c1c(C)n(CCN2CCOCC2)c2ccccc12 |  | 800 | 91 | 
57 | Cc1c(C(=O)c2cccc(C#N)c2)c2ccccc2n1CCN1CCOCC1 | 1 |  |  | 
58 | O=C(c1cccc2ccccc12)c1cn(CCN2CCOCC2)c2ccc(Br)cc12 |  | 186 | 19 | 
59 | Cc1c(C(=O)c2ccc3ncccc3c2)c2ccccc2n1CCN1CCOCC1 |  | 499 | 103 | 
60 | Cc1c(C(=O)c2cccc3ncccc23)c2ccccc2n1CCN1CCOCC1 |  | 828 | 79 | 
61 | Cc1c(C(=O)c2ccc(F)cc2)c2ccccc2n1CCN1CCOCC1 | 12 |  |  | 
62 | Cc1c(C(=O)c2ccc3cccnc3c2)c2ccccc2n1CCN1CCOCC1 |  |  | 88 | 
63 | O=C(c1cccc2occc12)c1cn(CCN2CCOCC2)c2ccccc12 |  | 24 | 7.7 | 
64 | Cc1c(C(=O)c2ccc(C(C)(C)C)cc2)c2ccccc2n1CCN1CCOCC1 | 56 |  |  | 
65 | COc1ccc(C(=O)c2c(C)n(CCN3CCOCC3)c3cc(OC)ccc23)cc1 |  | 1450 | > 10000 | 
66 | O=C(c1ccc(O)c2ccccc12)c1cn(CCN2CCOCC2)c2ccccc12 |  | 3.4 |  | 
67 | CCc1ccc(C(=O)c2c(C)n(CCN3CCOCC3)c3ccccc23)cc1 |  | 306 | 71 | 
68 | Cc1c(C(=O)c2ccccc2C#N)c2ccccc2n1CCN1CCOCC1 | 0 |  |  | 
69 | COc1ccc(C(=O)c2c(C)n(CCN3CCOC(C)C3)c3ccccc23)cc1 (stereo unspecified) |  |  | > 10000 | 

Row | SMILES | inhibition [1] [%] | IC50 [2] [nM] | IC50 ([3]; Mus musculus) [nM] | IC50 [3] [nM]
70 | COc1cccc2c(C(=O)c3cccc4ccccc34)c(C)n(CCN3CCOCC3)c12 |  | 10 |  | 
71 | CC(CN1CCOCC1)n1cc(C(=O)c2cccc3ccccc23)c2ccccc21 (stereo in doubt; -106) |  | 33 |  | 12
72 | Cc1c(C(=O)c2cccc3ccccc23)c2ccccc2n1CCCN1CCOCC1 |  | 150 | 112 | 
73 | O=C(c1cccc2ccccc12)c1c(Cl)n(CCN2CCOCC2)c2ccccc12 |  | 10 | 6.1 | 
74 | Cc1c(C(=O)c2cccc3ccccc23)c2ccccc2n1CCN1CCOC(C)C1 (stereo unspecified) |  | 59 | 30 | 
75 | Cc1ccc2c(C(=O)c3cccc4ccccc34)cn(CCN3CCOCC3)c2c1 |  | 3.5 | 1.7 | 
76 | COc1ccc(C(=O)c2c(C)n(CCN3CCOCC3)c3cc(C)ccc23)cc1 |  | 1880 | > 10000 | 
77 | Cc1c(C(=O)c2ccc(C#N)c3ccccc23)c2ccccc2n1CCN1CCOCC1 |  | 15 | 15 | 
78 | CC(Cn1cc(C(=O)c2cccc3ccccc23)c2ccccc21)N1CCOCC1 (stereo unspecified) |  | 124 | 60 | 
79 | Cc1c(C(=O)c2cccc3ccccc23)c2ccccc2n1CCN1CCNCC1 | -9 |  |  | 
80 | O=C(c1ccc2occc2c1)c1cn(CCN2CCOCC2)c2ccccc12 |  | 138 | 28 | 
81 | Cc1c(C(=O)c2cccc3ccccc23)c2ccccc2n1CCN1CCOCC1C (stereo unspecified) |  | 384 | 207 | 
82 | Cc1c(C(=O)c2cccc3ccccc23)c2ccccc2n1CCN1CCOCC1 |  | 19 | 15 | 
83 | O=C(c1cccc2ccccc12)c1cn(CCN2CCOCC2)c2ccc(O)cc12 |  | 70 | 20 | 
84 | COc1ccc(C(=O)c2cn(CCN3CCOCC3)c3ccccc23)cc1 |  | 390 | 101 | 
85 | Cc1c(C(=O)c2c3ccccc3cc3ccccc23)c2ccccc2n1CCN1CCOCC1 |  |  | > 10000 | 
86 | CC(CN1CCOCC1)n1cc(C(=O)c2cccc3ccccc23)c2ccccc21 (racemic; form 1) |  | 114 |  | 60
87 | COc1ccc(C(=O)c2c(C)n(CCN3CCOCC3)c3c(C)cccc23)cc1 |  | 1530 | 178 | 
88 | O=C(c1c2ccccc2cc2ccccc12)c1cn(CCN2CCOCC2)c2ccccc12 |  | 2960 | > 10000 | 
89 | Cc1c(C(=O)c2cccc3ccccc23)c2ccccc2n1CCN1CCCCC1 |  | 37 | 66 | 
90 | CCc1c(C(=O)c2ccc(OC)cc2)c2ccccc2n1CCN1CCOCC1 |  |  | > 10000 | 
91 | O=C(c1cccc2ccccc12)c1cn(CCCN2CCOCC2)c2ccccc12 |  | 43 | 9.8 | 
